Data from ChEMBL document CHEMBL5226279, “Mercaptoacetamide: A promising zinc-binding group for the discovery of selective histone deacetylase 6 inhibitors” (Eur J Med Chem, 2021).
Each block holds one compound with its values, some of them ahead of it.

Tests used:
Histone deacetylase 4 [1] = target: T1, Histone deacetylase 4 (Homo sapiens, UniProt P56524); experiment: Inhibition of human recombinant HDAC4 incubated for 17 hrs
Histone deacetylase 7 = target: T2, Histone deacetylase 7 (Homo sapiens, UniProt Q8WUI4); experiment: Inhibition of human recombinant HDAC7 incubated for 17 hrs
T2 sequence (Q8WUI4 whole entry): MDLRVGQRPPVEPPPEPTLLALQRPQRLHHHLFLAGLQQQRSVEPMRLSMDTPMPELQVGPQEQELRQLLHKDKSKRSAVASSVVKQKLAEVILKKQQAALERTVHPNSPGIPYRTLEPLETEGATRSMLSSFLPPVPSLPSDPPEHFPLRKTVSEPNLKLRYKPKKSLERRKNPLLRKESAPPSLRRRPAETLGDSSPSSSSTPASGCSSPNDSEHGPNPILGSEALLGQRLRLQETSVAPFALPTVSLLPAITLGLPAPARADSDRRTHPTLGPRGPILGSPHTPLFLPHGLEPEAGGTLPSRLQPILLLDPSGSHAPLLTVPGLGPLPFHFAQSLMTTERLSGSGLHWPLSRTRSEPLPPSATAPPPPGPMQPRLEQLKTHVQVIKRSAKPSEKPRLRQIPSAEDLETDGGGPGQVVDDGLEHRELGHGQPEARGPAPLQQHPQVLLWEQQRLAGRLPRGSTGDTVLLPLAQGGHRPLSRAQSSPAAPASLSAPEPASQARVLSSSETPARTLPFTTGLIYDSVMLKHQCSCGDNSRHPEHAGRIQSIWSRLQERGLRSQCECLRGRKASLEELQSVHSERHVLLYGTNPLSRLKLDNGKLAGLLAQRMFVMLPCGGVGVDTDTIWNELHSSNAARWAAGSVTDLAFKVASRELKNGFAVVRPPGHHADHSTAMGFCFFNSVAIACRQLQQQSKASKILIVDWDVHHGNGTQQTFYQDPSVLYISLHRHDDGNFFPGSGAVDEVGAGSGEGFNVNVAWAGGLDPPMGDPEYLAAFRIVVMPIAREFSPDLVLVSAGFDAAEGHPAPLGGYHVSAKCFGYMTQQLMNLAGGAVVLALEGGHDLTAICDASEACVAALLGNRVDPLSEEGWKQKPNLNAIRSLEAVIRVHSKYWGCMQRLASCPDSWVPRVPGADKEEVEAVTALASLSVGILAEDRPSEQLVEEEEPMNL

Histone deacetylase 11 = target: T3, Histone deacetylase 11 (Homo sapiens, UniProt Q96DB2); experiment: Inhibition of human recombinant HDAC11 incubated for 17 hrs
T3 sequence (Q96DB2 whole entry): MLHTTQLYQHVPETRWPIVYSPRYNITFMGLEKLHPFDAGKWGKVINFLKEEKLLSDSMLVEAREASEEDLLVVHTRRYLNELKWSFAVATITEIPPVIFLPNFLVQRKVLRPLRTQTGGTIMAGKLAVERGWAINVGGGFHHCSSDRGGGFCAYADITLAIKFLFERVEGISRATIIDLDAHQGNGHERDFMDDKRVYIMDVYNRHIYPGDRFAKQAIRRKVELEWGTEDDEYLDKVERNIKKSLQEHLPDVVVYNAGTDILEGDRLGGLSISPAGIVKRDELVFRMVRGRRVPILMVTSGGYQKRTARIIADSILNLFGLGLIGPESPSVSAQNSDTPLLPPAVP

[2] = Apparent permeability across apical to basolateral side in human Caco-2 cells; assay type: ADME, cell-based
[3] = Apparent permeability across basolateral to apical side in human Caco-2 cells; assay type: ADME, cell-based
Histone deacetylase 4 [4] = target: T1, Histone deacetylase 4; experiment: Inhibition of HDAC4 (unknown origin)
[5] = target: T4, Polyamine deacetylase HDAC10 (Homo sapiens, UniProt Q969S8); experiment: Inhibition of HDAC10 (unknown origin)
T4 sequence (Q969S8 whole entry): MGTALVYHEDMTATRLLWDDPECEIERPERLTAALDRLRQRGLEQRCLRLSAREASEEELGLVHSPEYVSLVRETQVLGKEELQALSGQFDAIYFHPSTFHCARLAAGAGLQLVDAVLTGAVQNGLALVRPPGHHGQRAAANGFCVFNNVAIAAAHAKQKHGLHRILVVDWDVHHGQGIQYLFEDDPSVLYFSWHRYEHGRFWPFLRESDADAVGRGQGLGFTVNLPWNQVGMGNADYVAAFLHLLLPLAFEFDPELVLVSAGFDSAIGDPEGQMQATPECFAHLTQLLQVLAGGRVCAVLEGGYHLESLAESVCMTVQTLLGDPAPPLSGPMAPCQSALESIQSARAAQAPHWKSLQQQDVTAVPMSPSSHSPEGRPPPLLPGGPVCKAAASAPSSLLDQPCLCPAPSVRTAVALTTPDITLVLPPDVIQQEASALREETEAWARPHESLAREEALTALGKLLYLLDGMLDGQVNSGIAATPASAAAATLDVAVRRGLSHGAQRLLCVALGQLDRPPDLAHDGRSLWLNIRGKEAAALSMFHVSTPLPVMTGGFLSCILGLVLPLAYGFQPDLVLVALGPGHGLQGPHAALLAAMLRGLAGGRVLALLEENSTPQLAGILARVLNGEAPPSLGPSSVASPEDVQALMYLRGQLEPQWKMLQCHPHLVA

T1 sequence (P56524 whole entry): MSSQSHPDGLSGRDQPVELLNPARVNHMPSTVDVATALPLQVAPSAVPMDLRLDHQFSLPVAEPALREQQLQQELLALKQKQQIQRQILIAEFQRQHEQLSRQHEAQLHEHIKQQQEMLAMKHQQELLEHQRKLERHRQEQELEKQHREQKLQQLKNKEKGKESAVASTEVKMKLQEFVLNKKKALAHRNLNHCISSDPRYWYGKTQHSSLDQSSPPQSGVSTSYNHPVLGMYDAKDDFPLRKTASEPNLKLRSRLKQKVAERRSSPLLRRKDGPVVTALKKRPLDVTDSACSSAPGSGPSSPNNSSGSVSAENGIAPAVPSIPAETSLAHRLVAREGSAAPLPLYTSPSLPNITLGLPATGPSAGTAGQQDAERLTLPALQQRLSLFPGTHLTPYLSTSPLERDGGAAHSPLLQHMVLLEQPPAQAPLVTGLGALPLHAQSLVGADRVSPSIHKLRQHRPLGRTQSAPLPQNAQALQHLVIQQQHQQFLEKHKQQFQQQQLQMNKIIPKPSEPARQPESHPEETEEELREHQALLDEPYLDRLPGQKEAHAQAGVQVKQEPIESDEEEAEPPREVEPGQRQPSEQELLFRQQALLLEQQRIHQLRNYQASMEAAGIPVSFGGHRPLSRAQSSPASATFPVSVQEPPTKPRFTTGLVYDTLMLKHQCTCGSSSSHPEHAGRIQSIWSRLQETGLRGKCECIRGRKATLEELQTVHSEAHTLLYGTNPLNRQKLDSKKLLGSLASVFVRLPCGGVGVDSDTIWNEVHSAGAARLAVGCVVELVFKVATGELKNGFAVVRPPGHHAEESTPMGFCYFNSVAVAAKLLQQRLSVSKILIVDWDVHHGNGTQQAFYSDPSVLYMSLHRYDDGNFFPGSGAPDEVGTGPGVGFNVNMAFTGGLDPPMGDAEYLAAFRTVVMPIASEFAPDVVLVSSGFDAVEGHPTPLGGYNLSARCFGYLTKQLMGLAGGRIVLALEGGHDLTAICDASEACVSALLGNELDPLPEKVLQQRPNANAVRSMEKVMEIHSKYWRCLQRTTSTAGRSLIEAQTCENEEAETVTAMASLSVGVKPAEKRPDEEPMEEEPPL

- IC50 (Histone deacetylase 4 [1]): > 30 µM
- IC50 (Histone deacetylase 7): > 30 µM
- IC50 (Histone deacetylase 11): 0.432 µM
Structure (SMILES): Nc1ccc(F)cc1NC(=O)c1ccc(CNC(=O)/C=C/c2cccnc2)cc1

- Papp A→B [2]: 30 nm/s
- Papp B→A [3]: 63.3 nm/s
Structure (SMILES): O=C(CCCCCCC(=O)Nc1ccccc1)NO [VORINOSTAT]

Structure (SMILES): O=C(/C=C/c1cccc(S(=O)(=O)Nc2ccccc2)c1)NO [BELINOSTAT]
- IC50 (Histone deacetylase 4 [4]): 1.24 µM
- IC50 [5]: 0.031 µM
